Laboratory results from patent US20240374546A1, “USES AND METHODS FOR PROMOTING INCREASED MITOCHONDRIAL MASS AND FUNCTION” (Brightseed, Inc., priority 2022, published 2024).
“Also recorded” adds a separate entry of the source.

Experiments:
[1] = Triglyceride analysis in liver, serum and stool; format: in vivo, mouse; settings: HFD+NCT vs HFD
Protocol: The TG level in mouse liver, serum and stool was measured according to manufacturer's instructions using the Triglyceride Calorimetric Assay Kit (Cat #10010303, Cayman Chemicals, USA). Liver and stool TG was normalized with liver and stool weight, respectively. Fold change was calculated by normalizing to values from mice fed NC.

[2] = Free fatty acid quantification in serum; format: in vivo, mouse; settings: HFD+NCT vs HFD, 10 weeks
Protocol: Blood samples were collected from dextrose injected mice and centrifuged to collect serum samples. The serum FFA level was measured according to manufacturer's instructions using a Free Fatty Acid Quantification Colorimetric/Fluorometric Kit (Cat #K612, BioVision, USA). Fold change was calculated by normalizing to values from mice fed NC.

[3] = test system: total cellular NAD; test: Total NAD level in liver lysate; format: in vivo, mouse; settings: HFD+NCT vs HFD
Protocol: Total NAD level in liver lysate was analyzed according to manufacturer's instructions using a calorimetric NAD+/NADH assay kit (Cat #MET-5014, Cell Biolabs, Inc. USA)

[4] = test system: VDAC1; test: VDAC-1 immunostaining of liver sections; format: in vivo, mouse; settings: HFD+NCT vs HFD
Protocol: Frozen liver sections were permeabilized using 0.3% Triton-X and incubated in antigen retrieval solution (Antigen retrieval citrate, Biogenex) at sub-boiling temperature for 10 min. Subsequently, sections were incubated with blocking buffer containing 5% normal donkey serum (Jackson Immuno Research) followed by incubation overnight at 4° C. with mouse anti-HNF4α monoclonal antibody (1:800, Cat #PP-H1415-00, R&D Systems), rabbit polyclonal anti-VDAC antibody (1:400, cat #PA1-954A, Invitrogen) and cleaved caspase3 antibody (1:500, cat #9664, Cell Signaling). Sections were washed and incubated for 1 hour at room temperature with anti-mouse secondary antibody coupled with Alexa fluor 488 (1:400, Invitrogen) and antirabbit secondary antibody coupled with rhodamine red. Nuclei were visualized by counterstaining with DAPI (40,6-diamidino-2-phenylindole, Sigma Aldrich). Slides were mounted using fluorescence mounting medium and images were obtained at 40× magnification using an Olympus IX71 fluorescence microscope. Fluorescence intensity of HNF4α-stained nuclei and VDAC stained mitochondria was calculated using MetaMorph TL software (version 7.6.5.0, Olympus). Fold change was calculated by normalizing to values from mice fed NC.

[5] = test system: citrate synthase; test: Citrate synthase activity in liver homogenate; format: in vivo, mouse; settings: HFD+NCT vs HFD
Protocol: Citrate synthase activity in liver homogenate was measured according to manufacturer's instructions using a calorimetry based MitoCheck Citrate Synthase Activity Assay Kit (Cat #701040, Cayman Chemicals, USA).

[6] = test system: IL-1P mRNA; test: qPCR mouse liver, IL-1β mRNA; format: in vivo; settings: HFD+NCT vs HFD
Protocol: (§1) Total RNA was isolated from liver tissues and primary human hepatocytes using Trizol (Invitrogen). cDNA was amplified using 3 μg of total RNA using qScript cDNA SuperMix (Quanta BioSciences, Beverly, MA, USA). Quantitative real time PCR (RT-PCR) analysis was performed using SYBR® Select Master Mix (Applied Biosystems) and an ABI 7900HT thermal cycler (Applied Biosystems, Thermo Fisher Scientific). Ct values were normalized to 18s rRNA and are expressed as fold change over samples from mice fed NC or cultured human hepatocytes without NCT.

[7] = test system: PPARGC1A mRNA; test: qPCR primary human hepatocytes, PPARGC1A mRNA; format: cell-based; settings: NCT 5, 15, 40 μM
Protocol: (§2) Experiments with primary human hepatocytes were performed by CN-Bio (Cambridge, UK). Briefly, primary human hepatocytes (PHHs), human Kupffer cells (HKs) and human stellate cells (HSCs) were seeded onto CN-Bio's PhysioMimix LC12 MPS culture plates at 6×10^5 cells for PHHs and 6×10^4 cells for HKs and HSCs in 1.6 ml of CN-Bio's HEP-lean media with 5% FCS. Throughout the experiment the cells were maintained at a flow rate of 1 μl/s. After 24 hours (Day 1) of seeding, the media was changed to HEP-lean media and the cells were incubated until day 4 to allow the cells to form microtissues. At day 4 post seeding, media was changed to HEP-fat media and treated with DMSO or NCT (5, 15, 40 μM). Media was replaced on days 6 and 8. Cells were harvested on day 10 for RNA extraction and culture media was collected for ELISA analysis.
as §1

[8] = test system: IL-6 mRNA; test: qPCR primary human hepatocytes, IL-6 mRNA; format: cell-based; settings: NCT 5, 15, 40 μM
Protocol: as §2, §1

[9] = test system: TNFα mRNA; test: qPCR primary human hepatocytes, TNFα mRNA; format: cell-based; settings: NCT 5, 15, 40 μM
Protocol: as §2, §1

[10] = test system: mitochondrial DNA (ND1, 16S rRNA); test: Mitochondrial DNA analysis in mouse liver; format: in vivo; settings: normalized with HK2
Protocol: Quantification of mtDNA was performed as described (BCurr Protoc Mouse Biol 2017; 7:47-54). Snap frozen mouse liver was homogenized and total cellular DNA was extracted with a QIAamp DNA kit (Qiagen) followed b PCR with the primers below: […]

[11] = test system: nitric oxide (NO); test: Nitric oxide assay, mouse liver; format: in vivo; settings: HFD+NCT vs HFD, normalized to liver weight
Protocol: T6PNE cells were maintained in RPMI (5.5 mM glucose, Corning) supplemented with 10% fetal bovine serum (FBS, Sigma-Aldrich) and 1% penicillin-streptomycin (pen-strep, Gibco) in 5% CO2 at 37° C. Cells were treated with […] palmitate plus 0 or 15 μM NCT for 3 days in 10 cm plates and harvested with 500 μl PBS. For tissue specimens, snap frozen mouse liver was weighed and homogenized with PBS. NO was measured with the QuantiChrom Nitric Oxide Assay kit (D2NO-100, BioAssay Systems). Homogenized samples (150 μl) were processed for deproteination with 8 μl ZnSO4 and 8 μl NaOH. For normalization, an aliquot of samples from T6PNE cells was taken for BCA assay before deproteination. Samples and standard from kit incubated with reagents for 20 min at 60° C. and measured OD 540 nm.

[12] = test system: PPARGC1A (PGC1α) mRNA; test: RNA-seq of livers of mice treated for 2 weeks with NCT; format: in vivo, mouse; settings: livers of mice treated for 2 weeks (GEO 174848)
Description: The ability of NCT to increase mitochondrial mass raised the question of the mechanism by which that occurred. […] PPARGC1A plays an important role in mitochondrial biogenesis but is not known to be regulated by HNF4α. […]

[13] = Overall tolerability across studies (maximum tolerated dose, two-week IP, long term oral); format: in vivo; settings: short-term maximum tolerated dose study, two-week IP 200 mg/kg bid, long term oral administration
Description: Given the chronic nature of disorders of lipotoxicity, the lack of discernable toxicity of NCT is critical, but this will obviously require additional investigation in human clinical trials.

In the case of `O=C(/C=C/c1ccc(O)c(O)c1)NCCc1ccc(O)cc1` [NCT, N-transcaffeoyltyramine], the “hepatic TG” value ([1]; normalized to liver weight) is reported as “lower TG”, the “circulating TG” value ([1]; serum, 10 weeks) is reported as “no difference” and the “circulating free fatty acid (FFA)” value [2] is reported as “no difference”. For the same molecule, the “total cellular NAD in liver” value [3] was “substantial increase”, the “VDAC1 expression (HFD-induced decrease)” value [4] was “substantial reversal” and the “citrate synthase activity (HFD-induced decrease)” value [5] was “reversed; also recorded: substantial reversal”. For the same molecule, the “ILI p expression (FIG. 5C, mouse liver)” value [6] was “not significantly changed”, the “PPARGC1A mRNA in primary human hepatocytes” value [7] was “increased” and the “IL-6 mRNA in cultured human hepatocytes” value [8] was “reduced”. For the same molecule, the “TNFα mRNA in cultured human hepatocytes” value [9] was “decreased in a dose-responsive manner”, the “mitochondrial DNA, 16S rRNA” value [10] was “significant increase” and the “mitochondrial DNA, ND1” value [10] was “significant increase”. The “nitric oxide (NO) in liver” value [11] was “decreased”, the “increase in PPARGC1A (PGC1α) mRNA” value [12] was “approximately 6 fold” and the “deleterious effects / toxicity” value [13] was “not seen any deleterious effects”.
